In US20250228835A1, “PYRIDINYLOXYPYRIDINES AND RELATED COMPOUNDS AND THEIR USE IN TREATING MEDICAL CONDITIONS” (Rectify Pharmaceuticals, Inc., priority 2024, published 2025) one finds EC50 data, which are given here for 22 compounds.

One assay addresses T1, ABCC6 WT (Homo sapiens, UniProt O95255).
T1 construct: expressed in transfected cells; host or cells: HEK-293 (transient, Lipofectamine 2000)
Put plainly: ABCC6 WT assay: HiBit protein expression. It is filed as cell-based. Particulars: HEK-293 cells transiently expressing HiBit-tagged ABCC6 WT; 24 h treatment; top concentration 20 μM; read-out: ABCC6 WT EC50, Emax. An excerpt: To assess activity against ABCC6, compounds were screened in an assay measuring protein expression, using cells transfected with cDNA encoding HiBit-tagged ABCC6 wild-type.
Described here is an assay for measuring the expression of the wild type of human ABCC6 (henceforth referred to as ABCC6 WT) and the use of this assay to measure the efficacy of compounds to increase the expression of ABCC6 WT. The assay was designed to characterize the efficacy and potency of compounds to increase the expression of ABCC6 WT by calculating an Emax and EC50 value. HEK-293 cells transiently expressing ABCC6 WT (HEK-293/ACC6 WT) were used for this assay and were cultured at 37° C. (5% CO2, humidified) in Dulbecco's Modified Eagle Medium (DMEM, Gibco product #11965-092) supplemented with 10% fetal bovine serum. For the assay, HEK-293 cells were transfected with […]/10 cm plate of cDNA encoding HiBit-tagged ABCC6 wild-type using Lipofectamine 2000 (Thermo Fisher, product #11668019). Twenty-four hours after transfection, the HEK-293/ACC6 WT cells were seeded in white/opaque 384-well plates (PerkinElmer, cat. No. 6007688) at 10,000 cells/well in 20 μl growth medium and allowed to settle for 4 hours at 37° C. (5% CO2, humidified). Compound serial dilutions are prepared in growth medium as ten times (10×) the final concentration and using a dilution factor of 2. After the four-hour incubation period, 2.2 μL of the 10× dilutions are transferred to the assay plate.
Dose response curves include ten doses with the top final concentration at 20 μM in 0.15% DMSO. Liquid handling is performed with an Integra mini96-tip head (INTEGRA). After addition of compound treatment, cells are incubated for 24 hours at 37° C. (5% CO2, humidified). After the 24-hour treatment, plates are allowed to equilibrate for 15 minutes at room temperature. Using Integra mini-96, 20 μl of HiBit lytic assay reagent (Promega, product #N3040), which is prepared according to manufacturer's instructions, is added to each well. The plates are rotated at room temperature for 10 minutes and luminescent signal is acquired using an EnVision Multimode Plate Reader (PerkinElmer).
Results are presented below in Table 4 for ABCC6 WT.
(The HiBiT peptide binds its large partner to form an active luciferase.)

Another assay concerns the target T2, ABCA4 P1380L (Homo sapiens, UniProt P78363, P1380L).
T2 construct: expressed in transfected cells
Put plainly: A4 correction dose-response assay: ABCA4 P1380L HiBit protein expression. The settings on record: HEK-293 cells stably expressing HiBit-tagged ABCA4 P1380L; 24 h treatment; top concentration 30 μM; read-out: ABCA4 P1380L EC50, Emax. In kind it is cell-based. An outline of the steps: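 Cells transfected with HiBit-tagged human ABCA4 P1380L cDNA were treated for 24 h at 37°C with an eleven-point dilution series (top final 30 μM, 0.3% DMSO).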

T2 sequence (P78363 whole entry P1380L): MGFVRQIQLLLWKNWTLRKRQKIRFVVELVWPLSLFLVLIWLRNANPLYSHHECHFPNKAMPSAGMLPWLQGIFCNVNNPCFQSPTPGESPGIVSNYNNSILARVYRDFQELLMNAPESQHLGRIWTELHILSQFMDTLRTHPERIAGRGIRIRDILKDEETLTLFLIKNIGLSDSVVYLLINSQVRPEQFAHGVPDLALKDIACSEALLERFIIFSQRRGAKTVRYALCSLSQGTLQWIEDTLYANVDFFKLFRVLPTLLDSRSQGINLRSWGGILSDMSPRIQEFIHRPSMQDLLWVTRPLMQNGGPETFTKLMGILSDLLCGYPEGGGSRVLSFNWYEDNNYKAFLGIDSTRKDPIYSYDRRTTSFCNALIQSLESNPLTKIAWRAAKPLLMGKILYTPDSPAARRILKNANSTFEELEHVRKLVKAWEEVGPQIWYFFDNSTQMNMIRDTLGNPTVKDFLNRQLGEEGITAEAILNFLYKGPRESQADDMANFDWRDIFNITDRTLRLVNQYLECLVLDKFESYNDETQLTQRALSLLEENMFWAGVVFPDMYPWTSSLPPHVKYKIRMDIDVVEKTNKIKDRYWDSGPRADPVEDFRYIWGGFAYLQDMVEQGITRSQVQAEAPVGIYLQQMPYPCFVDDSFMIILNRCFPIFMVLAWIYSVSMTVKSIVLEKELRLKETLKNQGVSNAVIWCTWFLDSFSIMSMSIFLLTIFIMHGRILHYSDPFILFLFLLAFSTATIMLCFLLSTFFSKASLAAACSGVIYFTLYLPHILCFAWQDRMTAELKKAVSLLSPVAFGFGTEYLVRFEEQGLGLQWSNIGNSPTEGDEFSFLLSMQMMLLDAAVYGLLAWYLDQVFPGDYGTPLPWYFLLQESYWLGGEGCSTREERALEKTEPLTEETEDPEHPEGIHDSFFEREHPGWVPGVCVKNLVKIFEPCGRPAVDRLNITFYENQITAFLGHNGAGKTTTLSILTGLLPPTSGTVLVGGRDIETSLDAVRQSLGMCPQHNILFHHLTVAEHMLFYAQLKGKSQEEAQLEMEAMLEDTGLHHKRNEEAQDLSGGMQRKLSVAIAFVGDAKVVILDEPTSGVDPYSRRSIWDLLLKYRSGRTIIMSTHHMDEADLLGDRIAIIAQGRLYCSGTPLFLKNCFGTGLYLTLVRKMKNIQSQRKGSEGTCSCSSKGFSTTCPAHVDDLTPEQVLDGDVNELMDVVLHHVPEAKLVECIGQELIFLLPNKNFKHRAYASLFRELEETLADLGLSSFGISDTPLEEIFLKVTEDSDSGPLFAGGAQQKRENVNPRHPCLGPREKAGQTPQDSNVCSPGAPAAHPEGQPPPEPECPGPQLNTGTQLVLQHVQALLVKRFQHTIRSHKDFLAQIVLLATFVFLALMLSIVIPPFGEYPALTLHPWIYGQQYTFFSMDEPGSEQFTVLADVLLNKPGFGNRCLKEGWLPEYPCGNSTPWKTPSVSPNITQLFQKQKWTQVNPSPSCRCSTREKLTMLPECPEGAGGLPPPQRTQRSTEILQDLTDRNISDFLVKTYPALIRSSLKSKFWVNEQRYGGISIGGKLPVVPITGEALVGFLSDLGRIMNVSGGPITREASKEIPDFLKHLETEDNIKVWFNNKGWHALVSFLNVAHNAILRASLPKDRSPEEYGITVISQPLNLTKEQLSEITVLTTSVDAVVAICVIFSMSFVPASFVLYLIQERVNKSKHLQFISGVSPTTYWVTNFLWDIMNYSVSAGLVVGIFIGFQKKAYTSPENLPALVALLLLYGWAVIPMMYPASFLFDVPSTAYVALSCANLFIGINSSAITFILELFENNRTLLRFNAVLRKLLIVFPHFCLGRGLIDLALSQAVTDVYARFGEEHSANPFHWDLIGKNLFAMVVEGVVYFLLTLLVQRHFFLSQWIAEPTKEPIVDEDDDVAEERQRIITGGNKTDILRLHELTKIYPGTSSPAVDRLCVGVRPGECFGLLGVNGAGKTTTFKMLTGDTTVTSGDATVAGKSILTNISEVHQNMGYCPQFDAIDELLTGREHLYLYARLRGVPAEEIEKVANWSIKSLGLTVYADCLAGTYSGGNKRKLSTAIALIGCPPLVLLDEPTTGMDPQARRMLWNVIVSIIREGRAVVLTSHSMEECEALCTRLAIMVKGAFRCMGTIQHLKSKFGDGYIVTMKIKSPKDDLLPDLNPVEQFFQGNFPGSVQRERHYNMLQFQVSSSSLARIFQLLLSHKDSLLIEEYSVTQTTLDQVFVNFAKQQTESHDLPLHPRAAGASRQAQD
T1 sequence (O95255 whole entry): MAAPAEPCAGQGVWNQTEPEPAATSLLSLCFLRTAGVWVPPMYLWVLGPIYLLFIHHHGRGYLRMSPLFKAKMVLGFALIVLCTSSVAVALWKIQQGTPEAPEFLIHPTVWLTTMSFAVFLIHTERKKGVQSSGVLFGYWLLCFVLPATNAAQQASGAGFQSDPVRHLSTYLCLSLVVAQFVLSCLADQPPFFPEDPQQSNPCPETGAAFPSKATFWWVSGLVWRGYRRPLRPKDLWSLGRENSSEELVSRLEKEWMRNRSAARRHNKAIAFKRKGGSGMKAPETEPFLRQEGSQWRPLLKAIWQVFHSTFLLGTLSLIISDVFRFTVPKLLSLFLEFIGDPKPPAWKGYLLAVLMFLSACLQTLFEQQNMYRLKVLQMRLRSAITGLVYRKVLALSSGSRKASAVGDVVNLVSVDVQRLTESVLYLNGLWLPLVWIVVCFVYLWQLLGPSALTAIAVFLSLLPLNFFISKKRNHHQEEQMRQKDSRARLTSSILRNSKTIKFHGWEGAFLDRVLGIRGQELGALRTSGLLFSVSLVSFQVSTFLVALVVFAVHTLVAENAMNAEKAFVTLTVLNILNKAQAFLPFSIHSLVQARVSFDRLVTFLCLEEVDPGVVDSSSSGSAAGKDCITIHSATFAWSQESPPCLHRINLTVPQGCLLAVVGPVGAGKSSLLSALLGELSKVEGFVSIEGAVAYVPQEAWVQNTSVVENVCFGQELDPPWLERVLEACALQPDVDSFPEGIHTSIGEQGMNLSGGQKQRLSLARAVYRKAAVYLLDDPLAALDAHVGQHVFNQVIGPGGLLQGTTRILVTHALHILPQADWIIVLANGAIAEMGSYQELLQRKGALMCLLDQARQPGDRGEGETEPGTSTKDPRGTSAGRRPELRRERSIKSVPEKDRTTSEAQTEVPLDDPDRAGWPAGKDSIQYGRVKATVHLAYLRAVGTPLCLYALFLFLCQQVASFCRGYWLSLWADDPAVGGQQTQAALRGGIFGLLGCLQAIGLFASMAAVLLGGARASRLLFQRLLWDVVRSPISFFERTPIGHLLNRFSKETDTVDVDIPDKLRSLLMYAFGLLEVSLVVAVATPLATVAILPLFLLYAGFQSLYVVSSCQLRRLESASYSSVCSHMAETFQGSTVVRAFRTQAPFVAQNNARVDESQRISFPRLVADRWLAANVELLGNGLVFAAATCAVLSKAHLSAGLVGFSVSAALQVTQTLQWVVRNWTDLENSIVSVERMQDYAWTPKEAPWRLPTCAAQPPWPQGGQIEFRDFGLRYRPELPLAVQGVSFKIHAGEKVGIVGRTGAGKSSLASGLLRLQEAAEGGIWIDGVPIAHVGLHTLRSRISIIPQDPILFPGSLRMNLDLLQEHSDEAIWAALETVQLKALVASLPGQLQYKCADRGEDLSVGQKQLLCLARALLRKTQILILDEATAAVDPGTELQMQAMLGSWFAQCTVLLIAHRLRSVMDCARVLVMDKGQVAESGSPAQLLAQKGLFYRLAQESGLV

Regarding `Cc1cc(C)c(Oc2nc(-n3cc(C)cn3)ccc2NS(C)(=O)=O)c(C)c1` [Compound I-11], the EC50 was 1000 to 10000 nM at ABCC6 WT and over 25 µM at ABCA4 P1380L.

Turning to `Cc1cc(C)c(Oc2nc(-n3cnc(C)c3)ccc2NS(C)(=O)=O)c(C)c1` [Compound I-12], the EC50 on ABCC6 WT is under 1000 nM; at ABCA4 P1380L, over 25 µM.

As for `Cc1cc(C)c(Oc2nc(-c3cnn(C)c3C)ccc2NS(C)(=O)=O)c(C)c1` [Compound I-13], the figures for the concentration giving a half-maximal response (EC50) at ABCC6 WT and at ABCA4 P1380L were under 1000 nM and 1 to 10 µM, respectively.

In the case of `Cc1cc(C)c(Oc2nc(-c3cnn(C)c3)ccc2NS(C)(=O)=O)c(C)c1` [Compound I-14], the EC50 on ABCC6 WT was 1000 to 10000 nM; on ABCA4 P1380L, over 25 µM.

Regarding `Cc1cc(C)c(Oc2nc(N3CCN(C(=O)C4(C)CC4)CC3)ccc2NS(C)(=O)=O)c(C)c1` [Compound I-15], the EC50 lay in the range of 1000 to 10000 nM at ABCC6 WT and 1 to 10 µM on ABCA4 P1380L.

Turning to `COC(=O)N1CCN(c2ccc(NS(C)(=O)=O)c(Oc3c(C)cc(C)cc3C)n2)CC1` [Compound I-16], the values for the EC50 at ABCC6 WT and on ABCA4 P1380L were 1000 to 10000 nM and over 25 µM, respectively.

In the case of `CC(=O)N1CCN(c2ccc(NS(C)(=O)=O)c(Oc3c(C)cc(C)cc3C)n2)CC1` [Compound I-17], the EC50 at ABCC6 WT was 1000 to 10000 nM; on ABCA4 P1380L it was over 25 µM.

As to `Cc1nc(Oc2nc(-c3cncc(C#N)c3)ccc2NS(C)(=O)=O)c(C)s1` [Compound I-107], the figures for the EC50 on ABCC6 WT and on ABCA4 P1380L were under 1000 nM and over 25 µM, respectively.

In the case of `Cc1cc(Oc2nc(-c3cncc(C#N)c3)ccc2NS(C)(=O)=O)nn1C` [Compound I-113], the values for the concentration giving a half-maximal response (EC50) at ABCC6 WT and at ABCA4 P1380L were 1000 to 10000 nM and under 25 µM, respectively.

`Cc1nn(C)c(C)c1Oc1nc(-c2cncc(C#N)c2)ccc1NS(C)(=O)=O` [Compound I-115]: the results for the EC50 at ABCC6 WT and on ABCA4 P1380L were under 1000 nM and under 25 µM, respectively.

With `Cc1cc(C)c(Oc2nc(-c3cncc(S(C)(=N)=O)c3)ccc2NS(C)(=O)=O)c(C)n1` (centres unmarked) [Compound I-116], the EC50 at ABCC6 WT is at least 25000 nM; at ABCA4 P1380L, over 25 µM.

For `Cc1nc(C2CC2)c(Cl)cc1Oc1nc(-c2cncc(C#N)c2)ccc1NS(C)(=O)=O` [Compound I-120], the figures for the EC50 at ABCC6 WT and on ABCA4 P1380L were under 1000 nM and under 1 µM, respectively.

Turning to `Cc1cc(Oc2nc(-c3cncc(C#N)c3)ccc2NS(C)(=O)=O)c(C)nc1C1CC1` [Compound I-127], the EC50 on ABCC6 WT is under 1000 nM; at ABCA4 P1380L it was 1 to 10 µM.

In the case of `Cc1cc(OC(F)(F)F)nc(C)c1Oc1nc(-c2cncc(C#N)c2)ccc1NS(C)(=O)=O` [Compound I-131], the EC50 at ABCC6 WT is under 1000 nM; at ABCA4 P1380L, under 1 µM.

For the compound `Cc1cc(OC2CC2)nc(C)c1Oc1nc(-c2cncc(C#N)c2)ccc1NS(C)(=O)=O` [Compound I-132], the EC50 on ABCC6 WT was under 1000 nM; at ABCA4 P1380L, under 1 µM.

`Cc1nc(C)c(Oc2nc(-c3cncc(C#N)c3)ccc2NS(C)(=O)=O)c(C2CC2)n1` [Compound I-165]: the EC50 at ABCC6 WT was under 1000 nM; at ABCA4 P1380L it was 1 to 10 µM.

On to `Cc1cc(C)c(Oc2nc(-c3cncc(C#N)c3)ccc2N(C)S(C)(=O)=O)c(C)n1` [Compound I-166], for which the concentration for a half-maximal effect (EC50) on ABCC6 WT was 1000 to 10000 nM; at ABCA4 P1380L, 1 to 10 µM.

As to `CNS(=O)(=O)c1ccc(-c2cncc(C#N)c2)nc1Oc1c(C)nc(C(F)(F)F)nc1C` [Compound I-167], the figures for the EC50 on ABCC6 WT and at ABCA4 P1380L were 1000 to 10000 nM and 1 to 10 µM, respectively.

As for `CNS(=O)(=O)c1ccc(-c2cncc(C#N)c2)nc1Oc1c(C)cc(C(F)(F)F)nc1C` [Compound I-168], the EC50 lay within 1000 to 10000 nM on ABCC6 WT and 1 to 10 µM on ABCA4 P1380L.

Take `Cc1nc(N2CC(S(C)(=O)=O)C2)nc(C)c1Oc1nc(-c2cncc(C#N)c2)ccc1NS(C)(=O)=O` [Compound I-169]: the results for the EC50 on ABCC6 WT and at ABCA4 P1380L were 1000 to 10000 nM and 1 to 10 µM, respectively.

Take `Cc1nc(N2CC(F)(F)C2)nc(C)c1Oc1nc(-c2cncc(C#N)c2)ccc1NS(C)(=O)=O` [Compound I-170]: the EC50 at ABCC6 WT was under 1000 nM; at ABCA4 P1380L, under 1 µM.

For `Cc1cc(C2CC2)c(Oc2nc(-c3cncc(C#N)c3)ccc2NS(C)(=O)=O)c(C)n1` [Compound I-171], the EC50 is under 1000 nM at ABCC6 WT and under 1 µM on ABCA4 P1380L.

The term EC50 denotes the concentration that produces a half-maximal response.
